Series [1] deals with mouse myopic models (−30D lens on right eye, 0D lens on left eye). Briefly: Axial length measurement in lens-induced myopia mice (spectral domain optical coherence tomography). The settings on record: for myopia progression judged by axial length difference −30D vs 0D eyes: eyedrops 0.1 mg/mL once per day; for axial myopia progression judged by axial length difference −30D vs 0D eyes: Experiment 3, eyedrops 0.01% (0.01 mg/mL) once per day. It counts as in vivo, mice (C57BL6/J). Here is the method: (§1) During the myopia induction period, eyedrops were administered once per day. Phosphate buffered saline (PBS) eyedrops were classified as a control group (Control), and α1-blocker eyedrops were classified as test groups.
(§2) The refractive index and the axial length of the mouse eyeball after three weeks were measured and the amounts of change were calculated. The refractive values were measured by using an infrared photorefractor for mice (fabricated by Prof Schaeffel of University of Tubingen). The more negative the refractive index, the more severe the myopia. The axial lengths were measured by using spectral domain optical coherence tomography (Envisu R4310, manufactured by Leica). The greater the value of the axial length, the greater the severity of myopia.
(§3) The eyedrops were administered once per day for the three weeks of the myopia induction period.
(§4) α1-blocker eyedrops having concentrations (mg of α1-blocker salt contained in 1 mL: mg/mL) of 0.001 (mg/mL), 0.01 (mg/mL), and 0.1 (mg/mL) were used as the eyedrops. The eyedrops were administered once per day for the three weeks of the myopia induction period. The control group was used with PBS eyedrops not containing an α1-blocker, and the α1-blocker eyedrops were eyedrops obtained by containing bunazosin hydrochloride at the predetermined concentrations.
(§5) The PBS (control group), bunazosin eyedrops (bunazosin of 0.01%, bunazosin hydrochloride of 0.01 mg/mL), silodosin eyedrops (silodosin of 0.01%, silodosin of 0.01 mg/mL), and tamsulosin eyedrops (tamsulosin of 0.01%, tamsulosin hydrochloride of 0.01 mg/mL) were used as the eyedrops. The eyedrops were administered once per day for the three weeks of the myopia induction period, as in Experiments 1 and 2. For the control group as well, PBS eyedrops not containing an α1-blocker were used, as in Experiments 1 and 2.

Series [2] has the same test system. The experiment in a line: Refractive power measurement in lens-induced myopia mice (infrared photorefractor). It is filed as in vivo, mice (C57BL6/J). As for the experimental part:
as §1, §2, §3, §4, §5

For series [3] the following is noted: cited from earlier work.
[4] abbreviates: Experiment 1, eyedrops 0.1 mg/mL once per day for three weeks, amount of change.
Where [5] appears, read: Experiment 2, concentration 0.001 mg/mL.
Where [6] appears, read: Experiment 2, concentration 0.001 mg/mL, once per day, three weeks.
The mark [7] stands for this setting: Experiment 2, concentration 0.01 mg/mL.
The mark [8] stands for this setting: Experiment 2, concentration 0.01 mg/mL, once per day, three weeks.
[9] abbreviates: Experiment 2, concentration 0.1 mg/mL.
[10] abbreviates: Experiment 2, concentration 0.1 mg/mL, once per day, three weeks.
Where [11] appears, read: Experiment 1, eyedrops 0.1 mg/mL once per day for three weeks of myopia induction, amount of change.
Where [12] appears, read: Experiment 1, eyedrops 0.1 mg/mL once per day, three weeks.
Setting [13] is: Experiment 3, eyedrops 0.01% (0.01 mg/mL) once per day, three weeks.

Counter-ions that a name gives are not always drawn.

`CCCC(=O)N1CCCN(c2nc(N)c3cc(OC)c(OC)cc3n2)CC1` [bunazosin]: the “axial length, eyes with the 0D lens” value is listed as 0.187±0.019 mm in series [1] (setting [4]), 0.196±0.008 mm in series [1] (setting [6]), 0.192±0.021 mm in series [1] (setting [8]) and 0.180±0.028 mm in series [1] (setting [10]). Also, the “axial length, eyes with the −30D lens” value in series [1] (setting [4]) is 0.191±0.026 mm; in series [1] (setting [6]), 0.228±0.017 mm; in series [1] (setting [8]) it was 0.209±0.024 mm; in series [1] (setting [10]) it was 0.189±0.024 mm. In series [1] (Experiment 1, three weeks), the “myopia progression judged by axial length difference −30D vs 0D eyes” value is recorded as “progression of myopia was suppressed”. The entries for the “myopia progression judged by axial length” value in series [1] (setting [5]), in series [1] (setting [7]) and in series [1] (setting [9]) were “showed an elongation in axial length”, “progression of myopia was suppressed” and “progression of myopia was suppressed”, respectively. For the same molecule, the “axial myopia progression judged by axial length difference −30D vs 0D eyes” value in series [1] (three weeks) is reported as “progression of axial myopia was suppressed”. The “refractive power, eyes with the −30D lens” value is given as −0.74±4.07 D in series [2] (setting [11]), −10.90±4.13 D in series [2] (setting [6]), −6.92±4.08 D in series [2] (setting [8]) and −1.26±3.28 D in series [2] (setting [10]). The “refractive power, eyes with the 0D lens” value was 3.65±4.72 D in series [2] (setting [4]), −0.33±3.47 D in series [2] (setting [6]), −0.83±3.20 D in series [2] (setting [8]) and 3.19±3.76 D in series [2] (setting [10]). Further, the “myopia progression judged by refractive power difference −30D vs 0D eyes” value in series [2] (setting [12]) and in series [2] (setting [13]) was “progression of myopia was suppressed” throughout. Besides, the “myopia progression judged by refractive power” value is on record as “a sufficient myopia progression suppressing effect was not obtained” in series [2] (setting [5]), “progression of myopia was suppressed” in series [2] (setting [7]) and “progression of myopia was suppressed” in series [2] (setting [9]).

Take `COc1cc2nc(N3CCN(C(=O)C4COc5ccccc5O4)CC3)nc(N)c2cc1OC` (stereo not drawn) [doxazosin hydrochloride]: the “solubility with respect to water” value in series [3] is “approximately 5 mg/mL”.

Regarding `COc1cc2nc(N3CCN(C(=O)c4ccco4)CC3)nc(N)c2cc1OC` [prazosin], the “solubility with respect to water” value in series [3] is 1.4 mg/mL.

Regarding `C[C@H](Cc1cc2c(c(C(N)=O)c1)N(CCCO)CC2)NCCOc1ccccc1OCC(F)(F)F` [silodosin], the “axial myopia progression judged by axial length difference −30D vs 0D eyes” value in series [1] (three weeks) is “progression of axial myopia was suppressed”. Moreover, the “myopia progression judged by refractive power difference −30D vs 0D eyes” value in series [2] (setting [13]) is on record as “progression of myopia was suppressed”.

Consider `CCOc1ccccc1OCCN[C@H](C)Cc1ccc(OC)c(S(N)(=O)=O)c1` [tamsulosin], for which the “axial myopia progression judged by axial length difference −30D vs 0D eyes” value in series [1] (three weeks) is on record as “progression of axial myopia was suppressed”. Further, in series [2] (setting [13]), the “myopia progression judged by refractive power difference −30D vs 0D eyes” value is on record as “progression of myopia was suppressed”.

In the case of `COc1ccccc1N1CCN(CCCNc2cc(=O)n(C)c(=O)n2C)CC1` [urapidil], the “solubility with respect to water” value in series [3] is given as 25 mg/mL. For the same molecule, in series [1] (setting [4]), the “axial length, eyes with the 0D lens” value came to 0.217±0.014 mm and the “axial length, eyes with the −30D lens” value is on record as 0.233±0.020 mm. The “myopia progression judged by axial length difference −30D vs 0D eyes” value in series [1] (Experiment 1, three weeks) is listed as “progression of myopia was suppressed”. Moreover, in series [2] (setting [11]), the “refractive power, eyes with the −30D lens” value is −5.51±6.29 D. Also, the “refractive power, eyes with the 0D lens” value in series [2] (setting [4]) was found to be 0.33±7.07 D. Further, in series [2] (setting [12]), the “myopia progression judged by refractive power difference −30D vs 0D eyes” value was “progression of myopia was suppressed”.

The record behind these values is patent US20250222008A1, “EYEDROPS CONTAINING AN ALPHA1-BLOCKER FOR INHIBITING MYOPIA PROGRESSION” (TSUBOTA LABORATORY, INC., priority 2022, published 2025).
